What was measured:
[1] = target: T1, farnesyl pyrophosphate synthase (PaFPPS, PA4043) (Pseudomonas aeruginosa, UniProt Q9HWY4); assay: X-ray crystal structure at […] Å (also with GPP, 3zou); DSF shift […] °C; no significant inhibition at […]; format: binding
T1 construct: gene ispA; full-length, 295 amino acids, His tag cleaved with TEV

[2] = target: T2, farnesyl pyrophosphate synthase (PaFPPS, PA4043) (Pseudomonas aeruginosa, UniProt Q9HWY4); assay: turnover with GPP by the purified enzyme, pyrophosphatase-coupled malachite green assay (kcat […] s^-1; no inhibition implied); format: biochemical
T2 construct: gene ispA; full-length, 295 amino acids
T2 sequence (Q9HWY4 1-295): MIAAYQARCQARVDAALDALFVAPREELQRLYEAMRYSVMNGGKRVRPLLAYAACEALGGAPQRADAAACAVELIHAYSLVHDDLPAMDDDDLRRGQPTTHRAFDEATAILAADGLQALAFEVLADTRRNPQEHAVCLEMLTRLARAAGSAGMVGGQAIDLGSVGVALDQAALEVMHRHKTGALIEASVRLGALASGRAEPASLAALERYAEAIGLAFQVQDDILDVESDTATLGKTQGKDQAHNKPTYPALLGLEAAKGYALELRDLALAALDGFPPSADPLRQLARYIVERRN

[3] = target: the molecule itself; assay: crystal structure; sitting-drop vapour diffusion, 25 mg/ml protein; native: 20% PEG 3350, 0.2 M NaF, 0.1 M bis-tris propane pH 6.5; asymmetric unit holds a dimer related by a twofold noncrystallographic axis; 1.55 A

Molecule: O=C(O)CCn1c(=O)oc2ccccc21 [SPB02696, 3-[2-hydrozybenzo[d]oxazol-3(2H)-yl]propanoic acid]
- X-ray crystal structure at 1.90 Å (also with GPP, 3zou); DSF shift 2.8 °C; no si [1]: we describe the details of the enzyme–ligand interactions for fragment hit SPB02696 (termed 6H6 in the deposited coordinate file)

Molecule: C=C(C)CCO[P@@](=O)(O)OP(=O)(O)O [isopentenyl pyrophosphate]
- turnover with GPP by the purified enzyme, pyrophosphatase-coupled malachite gree [2]: no reaction took place without both IPP and GPP being present

B1: farnesyl pyrophosphate synthase from Pseudomonas aeruginosa PAO1 (locus PA4043) (enzyme, UniProt Q9HWY4 1-295, looked up)
chain: T2 sequence (Q9HWY4 1-295)
notes: farnesyl pyrophosphate synthase, P. aeruginosa PAO1, locus PA4043; open reading frame amplified from the genome; protein of 295 amino acids; residues Ala227-Gly254 (loop-HI) disordered in all structures; Vector pNIC28-Bsa4 with N-terminal six-histidine tag and TEV site; the tag is cleaved in the purification; The ESI-MS mass of 34 017.5 Da was of the protein with the His tag; also called PaFPPS; …
- stoichiometry N [3]: 2

From paper PMC4356374, “Structural characterization of substrate and inhibitor binding to farnesyl pyrophosphate synthase from Pseudomonas aeruginosa” (Acta Crystallographica Section D: Biological Crystallography, 2015)
